Columns and labels:
Assay in all cases: Weeding effect in post-emergence stage (greenhouse pot test)
Assay type in all cases: in vivo
[1] = tested on: Conyza japonica; conditions: post-emergence, dose 15 g a.i./ha, 3 weeks after application, fresh weight control rate
Description: (§1) The activity level criteria for plant damage (i.e., growth control rate) are as follows:
(§2) Level 5: growth control rate is above 85%; • Level 4: growth control rate is greater than or equal to 60% and less than 85%; • Level 3: growth control rate is greater than or equal to 40% and less than 60%; • Level 2: growth control rate is greater than or equal to 20% and less than 40%; • Level 1: growth control rate is greater than or equal to 5% and less than 20%; • Level 0: growth control rate is less than 5%.
(§3) The above growth control rates are fresh weight control rates.
(§4) Experiment on weeding effect in post-emergence stage:
(§5) Monocotyledonous and dicotyledonous weed seeds (Descurainia sophia, Capsella bursa-pastoris, Abutilon theophrasti, Galium aparine, Stellaria media, Lithospermum arvense, Rorippa indica, Alopecurus aequalis, Alopecurus japonicus, Eleusine indica, Beckmannia syzigachne, Sclerochloa dura, Phleum paniculatum, Veronica didyma Tenore, Bromus japonicus, Aegilops tauschii, Phalaris arundinacea, Amaranthus retrojlexus, Chenopodiaceae, Commelina communis, Sonchus arvensis, convolvulus arvensis, Cirsium setosum, Solanum nigrum, Acalypha australis, Digitaria sanguinalis, Echinochloa crusgalli, Setaria viridis, Setaria glauca, Leptochloa chinensis, Monochoria vaginalis, Sagittaria trifolia, Scirpus juncoides, Cyperus rotundus, Cyperus iria, Cyperus difformis, Fimbristylis, Portulaca oleracea, Xanthium sibiricum, Pharbitis nil, Conyza japonica, etc.) and major crop seeds (wheat, corn, rice, soybean, cotton, oilseed rape, millet, sorghum, potato, sesame, ricinus, etc.) were placed in plastic pots filled with soil, then covered with 0.5-2 cm of soil, allowed to grow in a good greenhouse environment. After 2 weeks of sowing, the test plants were treated in the 2-3 leaf stage. The tested compounds of the present invention were respectively dissolved in acetone, then added with Tween 80 and 1.5 liter/ha of emulsifiable concentrate of methyl oleate as synergist, diluted with a certain amount of water to obtain a solution with a certain concentration, and sprayed with a spray tower onto the plants. After the application, the plants were cultured for 3 weeks in the greenhouse, and then the experimental results of the weeding were counted. The doses of the used compounds were 500, 250, 125, 60, 15, 7.5 g a.i./ha, and the averages were obtained by repeating for three times.

[2] = tested on: Alopecurus japonicus; conditions: dose 15 g a.i./ha, 3 weeks after application, fresh weight control rate
Description: as §1, §2, §3, §4, §5

[3] = tested on: Beckmannia syzigachne; conditions: dose 15 g a.i./ha, 3 weeks after application, fresh weight control rate
Description: as §1, §2, §3, §4, §5

[4] = tested on: Capsella bursa-pastoris; conditions: dose 15 g a.i./ha, 3 weeks after application, fresh weight control rate
Description: as §1, §2, §3, §4, §5

Row | SMILES | Activity level (growth control rate), Conyza japonica [1] | Activity level (growth control rate), Alopecurus japonicus [2] | Activity level (growth control rate), Beckmannia syzigachne [3] | Activity level (growth control rate), Capsella bursa-pastoris [4]
1 | COC(=O)C12CCCC1C(c1cc(-n3c(=O)n(C)c(=S)n(C)c3=O)c(F)cc1Cl)=NO2 (stereo not shown) [Compound 2] | 5 (Level 5: growth control rate is above 85%) | 5 (Level 5: growth control rate is above 85%) | 5 (Level 5: growth control rate is above 85%) | 5 (Level 5: growth control rate is above 85%)
2 | CCCOC(=O)C12CCCC1C(c1cc(-n3c(=O)n(C)c(=S)n(C)c3=O)c(F)cc1Cl)=NO2 (stereo not shown) [Compound 4] | 4 (Level 4: growth control rate is greater than or equal to 60% and less than 85%) | 5 (Level 5: growth control rate is above 85%) | 5 (Level 5: growth control rate is above 85%) | 5 (Level 5: growth control rate is above 85%)
3 | C=CCOC(=O)C12CCCC1C(c1cc(-n3c(=O)n(C)c(=S)n(C)c3=O)c(F)cc1Cl)=NO2 (stereo not shown) [Compound 10] | 4 (Level 4: growth control rate is greater than or equal to 60% and less than 85%) | 5 (Level 5: growth control rate is above 85%) | 5 (Level 5: growth control rate is above 85%) | 5 (Level 5: growth control rate is above 85%)
4 | C#CCOC(=O)C12CCCC1C(c1cc(-n3c(=O)n(C)c(=S)n(C)c3=O)c(F)cc1Cl)=NO2 (stereo not shown) [Compound 13] | 4 (Level 4: growth control rate is greater than or equal to 60% and less than 85%) | 5 (Level 5: growth control rate is above 85%) | 5 (Level 5: growth control rate is above 85%) | 5 (Level 5: growth control rate is above 85%)
5 | Cn1c(=S)n(C)c(=O)n(-c2cc(C3=NOC4(C(=O)OCC5CCCO5)CCCC34)c(Cl)cc2F)c1=O (stereo not shown) [Compound 49] | 4 (Level 4: growth control rate is greater than or equal to 60% and less than 85%) | 4 (Level 4: growth control rate is greater than or equal to 60% and less than 85%) | 5 (Level 5: growth control rate is above 85%) | 5 (Level 5: growth control rate is above 85%)
6 | Cn1c(=S)n(C)c(=O)n(-c2cc(C3=NOC4(C(=O)OCc5ccccc5)CCCC34)c(Cl)cc2F)c1=O (stereo not shown) [Compound 51] | 4 (Level 4: growth control rate is greater than or equal to 60% and less than 85%) | 4 (Level 4: growth control rate is greater than or equal to 60% and less than 85%) | 4 (Level 4: growth control rate is greater than or equal to 60% and less than 85%) | 5 (Level 5: growth control rate is above 85%)
7 | CC(C)=NOC(=O)C12CCCC1C(c1cc(-n3c(=O)n(C)c(=S)n(C)c3=O)c(F)cc1Cl)=NO2 (stereo not shown) [Compound 66] | 4 (Level 4: growth control rate is greater than or equal to 60% and less than 85%) | 5 (Level 5: growth control rate is above 85%) | 4 (Level 4: growth control rate is greater than or equal to 60% and less than 85%) | 5 (Level 5: growth control rate is above 85%)
8 | COC(=O)C12CCCC1C(c1cc(-n3c(=O)cc(C(F)(F)F)n(C)c3=O)c(F)cc1Br)=NO2 (stereo not shown) [Compound 210] | 5 (Level 5: growth control rate is above 85%) | 5 (Level 5: growth control rate is above 85%) | 5 (Level 5: growth control rate is above 85%) | 5 (Level 5: growth control rate is above 85%)
9 | Cn1c(C(F)(F)F)cc(=O)n(-c2cc(C3=NOC4(C(=O)O)CCCC34)c(Cl)cc2F)c1=O (stereo not shown) [Compound 213] | 4 (Level 4: growth control rate is greater than or equal to 60% and less than 85%) | 5 (Level 5: growth control rate is above 85%) | 5 (Level 5: growth control rate is above 85%) | 5 (Level 5: growth control rate is above 85%)
10 | COC(=O)C12CCCC1C(c1cc(-n3c(=O)cc(C(F)(F)F)n(C)c3=O)c(F)cc1Cl)=NO2 (stereo not shown) [Compound 214] | 5 (Level 5: growth control rate is above 85%) | 5 (Level 5: growth control rate is above 85%) | 5 (Level 5: growth control rate is above 85%) | 5 (Level 5: growth control rate is above 85%)
11 | CCOC(=O)C12CCCC1C(c1cc(-n3c(=O)cc(C(F)(F)F)n(C)c3=O)c(F)cc1Cl)=NO2 (stereo not shown) [Compound 215] | 4 (Level 4: growth control rate is greater than or equal to 60% and less than 85%) | 5 (Level 5: growth control rate is above 85%) | 5 (Level 5: growth control rate is above 85%) | 5 (Level 5: growth control rate is above 85%)
12 | CCCOC(=O)C12CCCC1C(c1cc(-n3c(=O)cc(C(F)(F)F)n(C)c3=O)c(F)cc1Cl)=NO2 (stereo not shown) [Compound 216] | 4 (Level 4: growth control rate is greater than or equal to 60% and less than 85%) | 5 (Level 5: growth control rate is above 85%) | 5 (Level 5: growth control rate is above 85%) | 5 (Level 5: growth control rate is above 85%)
13 | CC(C)OC(=O)C12CCCC1C(c1cc(-n3c(=O)cc(C(F)(F)F)n(C)c3=O)c(F)cc1Cl)=NO2 (stereo not shown) [Compound 217] | 4 (Level 4: growth control rate is greater than or equal to 60% and less than 85%) | 5 (Level 5: growth control rate is above 85%) | 5 (Level 5: growth control rate is above 85%) | 5 (Level 5: growth control rate is above 85%)
14 | COC(=O)C12CCCC1C(c1cc(/N=c3\sc(=O)n4n3CCCC4)c(F)cc1Cl)=NO2 (stereo not shown) [Compound 575] | 4 (Level 4: growth control rate is greater than or equal to 60% and less than 85%) | 4 (Level 4: growth control rate is greater than or equal to 60% and less than 85%) |  | 5 (Level 5: growth control rate is above 85%)
15 | COC(=O)C12CCCC1C(c1cc(-c3nnc(C(F)(F)F)cc3OC)c(F)cc1Cl)=NO2 (stereo not shown) [Compound 578] | 4 (Level 4: growth control rate is greater than or equal to 60% and less than 85%) | 5 (Level 5: growth control rate is above 85%) |  | 5 (Level 5: growth control rate is above 85%)

Source: patent publication US12396458B2, “Fused ring substituted aromatic compound and preparation method therefor, herbicidal composition, and use thereof” (Qingdao Kingagroot Chemical Compound Co., Ltd., priority 2020, dated 2025)
